Laboratory results published in publication PMC6100512, “In-Vitro Activity of Silybin and Related Flavonolignans against Leishmania infantum and L. donovani” (Molecules : A Journal of Synthetic Chemistry and Natural …, 2018).

Legend:
[1] = tested on: intracellular amastigotes of Li BCN150; test: Activity against intracellular amastigotes ex vivo in mouse peritoneal Mφ; type: cell-based, Leishmania infantum; settings: 0.1 µM, 24 h
Method: Antiproliferative activity of flavonolignans against intracellular amastigotes was determined ex vivo using mouse peritoneal Mφ. Infections were carried out following the method and modifications described by us. Briefly, Mφ were seeded onto 8-well cell culture slides (SLP, Lifesciences Co., Pocheon, Korea) in a final volume of 400 µL (2.5 × 10^4 Mφ/well). Plates were incubated overnight at 37 °C under humidified 5% CO2/95% air atmosphere to facilitate adherence. Stationary-phase promastigotes of Ld and Li were centrifuged (370× g, 10 min) without break in a Ficoll (Sigma, Saint Louis, MO, USA) gradient (0%, 10% in Medium 199 and 30% in sterile phosphate-buffered saline). Metacyclic promastigotes, located in the 10–30% Ficoll interphase, were recovered, washed and opsonized in 15% normal mouse serum in 1:1 solution of RPMI and HBSS medium (Gibco, Life Technologies, Paisley, UK), 0.15 mM CaCl2 and 1 mM MgCl2 at 37 °C, 5% CO2 atmosphere for 30 min. Purified metacyclic promastigotes were added to the Mφ cultures using a ratio 4:1 (promastigotes:Mφ) for Li and 10:1 for Ld. Plates were incubated at 33 °C overnight as above. Noninternalized promastigotes were eliminated by repeated washing with fresh medium. Treatments (10 µM) were added to the cultures and kept for 24 h. Slides were methanol-fixed and stained with May–Grünwald Giemsa (Merck) to determine the % of infection and the number of amastigotes/100 Mφ under microscope. Cultures untreated, treated with 0.05% DMSO and treated with 0.1 µM AmB were included as controls. Experiments were done in triplicate and the activity was expressed as % of inhibition compared to untreated cultures.

Ld promastigotes = test: Multiplication of Ld promastigotes in vitro (CellTiter-Glo, 24 h); type: cell-based, L. donovani; settings: Leishmania donovani; for inhibition of growth at 120 µM: compared to untreated cultures, mean ± SD, read-out: Reduction (%) of multiplication, L. donovani promastigotes
Method: (§1) Growth was estimated by the addition of CellTiter-Glo® (Promega, Madison, WI, USA) (1:1) in 96-well microtiter white plates (Costar, Corning). After 10 min incubation (light protected, room temperature), luminescence was determined with FLUOstar Omega (BMG Labtech) reader. Sensitivity of Ld was similarly performed with promastigotes exposed to 120 μM. Control cultures (medium, untreated promastigotes, promastigotes treated with 0.2 μM AmB) were included. Experiment was carried out in triplicate and results expressed as % of inhibition of untreated control. Approximate IC50 values of the flavonolignans showing the highest inhibitory activity against Li mid-log-phase promastigotes were determined using dose-response curves. […] The compound with the highest activity, DhiS-A, was assayed against Ld promastigotes using the latter dilution series and the same culture conditions as above. For comparative purposes, mid-log promastigotes of Li and Ld were exposed to established anti-Leishmania agents: AmB (0.0078 μ[…] and 1.0 μM); […]

Li promastigotes = test: Drug combination with DhiS-A, Chou-Talalay method (CalcuSyn); type: cell-based, Leishmania infantum; settings: for Dose Required of Dn in combination with DhiS-A: computer-simulated; for DRI of Dn in combination with DhiS-A: fold dose reduction vs single agent; for Type of interaction with DhiS-A: Li promastigotes, fixed ratios AmB 0.01:15, Sb^III 1:1, PMM 5:1 (Dn:DhiS-A)
Method: Fixed-combination ratios of drugs were based on the IC50 values determined for the individual molecules. Mid-log-phase promastigotes of Li were exposed for 24 h at constant ratios of 0.01:15 (AmB:DhiS-A), 1:1 (Sb^III:DhiS-A) and 5:1 (PMM:DhiS-A). Dose–response curves of the combinations were analyzed with the Chou–Talalay method, based on the theorem of combination index (CI)-isobologram and CalcuSyn software. This method allows the evaluation of the type of interaction between two molecules according to mass action law. Results can be used to determine quantitatively the synergy (CI < 1), additive effect (CI = 1) or antagonism (CI > 1) of combinations. Moreover, the program allows the calculation of the drug reduction index (DRI): dose reduction in drug combinations to reach a given inhibition compared to the activity of the individual drugs.

Li UCM9 promastigotes = test: Multiplication of Li promastigotes in vitro (CellTiter-Glo, 24 h); type: cell-based, Leishmania infantum; settings: for IC50: approximate, dose-response curve; for IC50 / inhibition of growth at 120 µM: 24 h; for inhibition of growth at 120 µM: compared to untreated cultures, mean ± SD, read-out: Reduction (%) of multiplication, L infantum promastigotes; for Emax: exploratory screening, 0.94 µM up to 120 µM, read-out: Maximal effect (inhibition of growth of control cultures) on Li promastigotes
Method: as §1

[2] = tested on: BALB/c mouse peritoneal macrophages, Mφ; test: Toxicity of flavonolignans for macrophages (CellTiter-Glo); type: cell-based; settings: Peritoneal macrophage, 24 h, 28.125 to 900 µM, approximate
Method: Toxicity of flavonolignans for mammalian cells was determined using mouse peritoneal Mφ. Cells obtained were counted and seeded onto 96-well cultures plates (Costar, Corning) at a final concentration of 5 × 10^4 Mφ/well (100 µL/well). Plates were incubated overnight at 37 °C and humidified 5% CO2/95% air to facilitate adherence. Cells were cultured as above for 24 h with different concentrations of the flavonolignans (28.125 µM, 56.25 µM, 112.5 µM, 225 µM, 450 µM and 900 µM). After incubation, cell viability was determined with CellTiter-Glo® as previously described. Untreated and 300 µM AmB-treated control wells were included. Experiments were done in triplicate and approximate IC50 determined.

[3] = ED50 (50% growth inhibition), constant ratio Dn:DhiS-A (AmB 0.01:15; Sb^III 1:1; PMM 5:1)
[4] = ED75 (75% growth inhibition), constant ratio Dn:DhiS-A (AmB 0.01:15; Sb^III 1:1; PMM 5:1)
[5] = ED90 (90% growth inhibition), constant ratio Dn:DhiS-A (AmB 0.01:15; Sb^III 1:1; PMM 5:1)
[6] = ED95 (95% growth inhibition), constant ratio Dn:DhiS-A (AmB 0.01:15; Sb^III 1:1; PMM 5:1)

C[C@@H]1[C@H](O)[C@@H](C)/C=C/C=C/C=C/C=C/C=C/C=C/C=C/[C@H](O[C@@H]2O[C@H](C)[C@@H](O)[C@H](N)[C@@H]2O)C[C@@H]2O[C@](O)(C[C@@H](O)C[C@@H](O)[C@H](O)CC[C@@H](O)C[C@@H](O)CC(=O)O[C@H]1C)C[C@H](O)[C@H]2C(=O)O [AmB, amphotericin B]
Reduction of the number of Mφ infected, Li [1]: 50.0 ± 6.93% | Reduction of the number of amastigotes/100 Mφ, Li [1]: 57.63 ± 11.47% | IC50 (Ld promastigotes; approximate, dose-response curve): ~0.06 µM | CI value of combination Dn + DhiS-A (Li promastigotes; ED10 (10% growth inhibition), constant ratio Dn:DhiS-A (AmB 0.01:15)): 1.49 (antagonism) | Dose Required of Dn in combination with DhiS-A (Li promastigotes; ED10): 0.023 µM | DRI of Dn in combination with DhiS-A (Li promastigotes; ED10): 2.85 | CI value of combination Dn + DhiS-A (Li promastigotes; ED25 (25% growth inhibition), constant ratio Dn:DhiS-A (AmB 0.01:15)): 1.24 (moderate antagonism) | Dose Required of Dn in combination with DhiS-A (Li promastigotes; ED25): 0.030 µM | DRI of Dn in combination with DhiS-A (Li promastigotes; ED25): 2.74 | CI value of combination Dn + DhiS-A (Li promastigotes; [3]): 1.06 (additive effect) | Dose Required of Dn in combination with DhiS-A (Li promastigotes; ED50): 0.038 µM | DRI of Dn in combination with DhiS-A (Li promastigotes; ED50): 2.64 | CI value of combination Dn + DhiS-A (Li promastigotes; [4]): 0.92 (additive effect) | Dose Required of Dn in combination with DhiS-A (Li promastigotes; ED75): 0.048 µM | DRI of Dn in combination with DhiS-A (Li promastigotes; ED75): 2.54 | CI value of combination Dn + DhiS-A (Li promastigotes; [5]): 0.81 (moderate synergism) | Dose Required of Dn in combination with DhiS-A (Li promastigotes; ED90): 0.062 µM | DRI of Dn in combination with DhiS-A (Li promastigotes; ED90): 2.39 | Dose Required of Dn in combination with DhiS-A (Li promastigotes; ED95): 0.074 µM | Type of interaction with DhiS-A (Li promastigotes): moderate synergism | IC50 (Li UCM9 promastigotes; Leishmania infantum): ~0.06 µM

COc1cc(C2Oc3cc(-c4oc5cc(O)cc(O)c5c(=O)c4O)ccc3OC2CO)ccc1O (stereo not drawn) [Dehydrosilybin AB, dehydrosilybin AB]
inhibition of growth at 120 µM (Ld promastigotes): 9.01 ± 3.59% | IC50 [2]: ~37 µM | inhibition of growth at 120 µM (Li UCM9 promastigotes; Leishmania infantum): 17.9 ± 4.33% | Emax (Li UCM9 promastigotes; Leishmania infantum): < 50%

COc1cc([C@@H]2Oc3cc(-c4oc5cc(O)cc(O)c5c(=O)c4O)ccc3O[C@H]2CO)ccc1O [Dehydrosilybin B, dehydrosilybin B]
inhibition of growth at 120 µM (Ld promastigotes): 38.1 ± 2.9% | IC50 [2]: ~41.2 µM | inhibition of growth at 120 µM (Li UCM9 promastigotes; Leishmania infantum): 20.9 ± 11.6%

COc1cc(C2C3C=C(c4oc5cc(O)cc(O)c5c(=O)c4O)C4C2COC4(O)C3=O)ccc1O (stereo not drawn) [Dehydrosilydianin, dehydrosilydianin]
inhibition of growth at 120 µM (Ld promastigotes): 29.8 ± 2.17% | inhibition of growth at 120 µM (Li UCM9 promastigotes; Leishmania infantum): 42.2 ± 5.42% | Emax (Li UCM9 promastigotes; Leishmania infantum): < 50%

COc1cc([C@H]2Oc3ccc([C@H]4Oc5cc(O)cc(O)c5C(=O)[C@@H]4O)cc3O[C@@H]2CO)ccc1O [Isosilybin A, isosilybin A]
inhibition of growth at 120 µM (Ld promastigotes): 30.6 ± 5.85% | inhibition of growth at 120 µM (Li UCM9 promastigotes; Leishmania infantum): 6.94 ± 6.43%

NC[C@@H]1O[C@H](O[C@H]2[C@@H](O)[C@H](O[C@@H]3[C@@H](O)[C@H](N)C[C@H](N)[C@H]3O[C@H]3O[C@H](CO)[C@@H](O)[C@H](O)[C@H]3N)O[C@@H]2CO)[C@H](N)[C@@H](O)[C@@H]1O [PMM, paromomycin sulphate]
CI value of combination Dn + DhiS-A (Li promastigotes; [3]): 1.98 (antagonism) | Dose Required of Dn in combination with DhiS-A (Li promastigotes; ED50): 822 µM | DRI of Dn in combination with DhiS-A (Li promastigotes; ED50): 39.54 | CI value of combination Dn + DhiS-A (Li promastigotes; [4]): 1.65 (antagonism) | Dose Required of Dn in combination with DhiS-A (Li promastigotes; ED75): 1145 µM | DRI of Dn in combination with DhiS-A (Li promastigotes; ED75): 182.9 | CI value of combination Dn + DhiS-A (Li promastigotes; [5]): 1.38 (moderate antagonism) | Dose Required of Dn in combination with DhiS-A (Li promastigotes; ED90): 1594 µM | DRI of Dn in combination with DhiS-A (Li promastigotes; ED90): 845.2 | CI value of combination Dn + DhiS-A (Li promastigotes; [6]): 1.23 (moderate antagonism) | Dose Required of Dn in combination with DhiS-A (Li promastigotes; ED95): 1997 µM | DRI of Dn in combination with DhiS-A (Li promastigotes; ED95): 2393 | Type of interaction with DhiS-A (Li promastigotes): antagonists

COc1cc([C@H]2Oc3cc([C@H]4Oc5cc(O)cc(O)c5C(=O)[C@@H]4O)ccc3O[C@@H]2CO)ccc1O [Silybin A, silybin A]
inhibition of growth at 120 µM (Ld promastigotes): 14.2 ± 7.6% | inhibition of growth at 120 µM (Li UCM9 promastigotes; Leishmania infantum): -3.18 ± 9.09%

COc1cc([C@@H]2Oc3cc([C@H]4Oc5cc(O)cc(O)c5C(=O)[C@@H]4O)ccc3O[C@H]2CO)ccc1O [Silybin B, silybin B]
inhibition of growth at 120 µM (Ld promastigotes): 30.9 ± 5.02% | inhibition of growth at 120 µM (Li UCM9 promastigotes; Leishmania infantum): -3.82 ± 9.11%

COc1cc([C@@H]2Oc3c(O)cc([C@H]4Oc5cc(O)cc(O)c5C(=O)[C@@H]4O)cc3[C@H]2CO)ccc1O [Silychristin A, silychristin A]
inhibition of growth at 120 µM (Ld promastigotes): 19.2 ± 5.75% | inhibition of growth at 120 µM (Li UCM9 promastigotes; Leishmania infantum): 27.1 ± 8.64% | Emax (Li UCM9 promastigotes; Leishmania infantum): < 50%

COc1cc([C@@H]2[C@H]3CO[C@@]4(O)C(=O)[C@@H]2C=C([C@H]2Oc5cc(O)cc(O)c5C(=O)[C@@H]2O)[C@@H]34)ccc1O [Silydianin, silydianin]
inhibition of growth at 120 µM (Ld promastigotes): 20.5 ± 3.08% | inhibition of growth at 120 µM (Li UCM9 promastigotes; Leishmania infantum): 16.4 ± 8.63%

potassium tartrate of antimonium III [Sb^III]
CI value of combination Dn + DhiS-A (Li promastigotes; [3]): 1.89 (antagonism) | Dose Required of Dn in combination with DhiS-A (Li promastigotes; ED50): 56 µM | DRI of Dn in combination with DhiS-A (Li promastigotes; ED50): 0.82 | CI value of combination Dn + DhiS-A (Li promastigotes; [4]): 2.09 (antagonism) | Dose Required of Dn in combination with DhiS-A (Li promastigotes; ED75): 141.12 µM | DRI of Dn in combination with DhiS-A (Li promastigotes; ED75): 0.92 | CI value of combination Dn + DhiS-A (Li promastigotes; [5]): 2.50 (antagonism) | Dose Required of Dn in combination with DhiS-A (Li promastigotes; ED90): 355.63 µM | DRI of Dn in combination with DhiS-A (Li promastigotes; ED90): 1.04 | CI value of combination Dn + DhiS-A (Li promastigotes; [6]): 2.93 (antagonism) | Dose Required of Dn in combination with DhiS-A (Li promastigotes; ED95): 666.84 µM | DRI of Dn in combination with DhiS-A (Li promastigotes; ED95): 1.13 | Type of interaction with DhiS-A (Li promastigotes): antagonists | IC50 (Li UCM9 promastigotes): ~80.6 µM
